For the assay, the target named is T1, CCR2 (Homo sapiens, UniProt P41597).
T1 construct: Membranes were prepared from THP-1 cells; endogenous in cells; host or cells: THP-1 (human acute monocytic leukaemia cells), membrane preparation
T1 sequence (P41597 whole entry): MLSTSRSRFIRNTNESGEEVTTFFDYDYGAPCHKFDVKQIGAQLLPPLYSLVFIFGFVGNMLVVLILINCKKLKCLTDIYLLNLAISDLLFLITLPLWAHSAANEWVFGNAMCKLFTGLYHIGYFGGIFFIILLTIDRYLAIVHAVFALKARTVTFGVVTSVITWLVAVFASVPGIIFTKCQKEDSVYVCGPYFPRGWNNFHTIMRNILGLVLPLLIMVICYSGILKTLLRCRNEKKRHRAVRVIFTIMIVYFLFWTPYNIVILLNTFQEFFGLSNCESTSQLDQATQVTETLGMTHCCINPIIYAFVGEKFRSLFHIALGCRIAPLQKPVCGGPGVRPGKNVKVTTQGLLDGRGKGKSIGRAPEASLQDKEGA
The experiment in a line: CCR2 receptor membrane binding assay ([125I]MCP-1, THP-1 membranes, SPA beads). Particulars: THP-1 cell membranes, [125I]MCP-1 displacement, bound radioactivity after 8 h; read-out: hKi. The procedure: The above exemplary substances have been tested for binding to CCR2 using a binding assay as outlined herein below:
THP-1 cells (human acute monocytic leukaemia cells) were cultured under standardized conditions at 37° C. and 5% CO2 in a humidified incubator. THP-1 cells were cultivated in RPMI 1640 medium (Gibco 21875) containing 1% MEM-NEAA (Gibso 11140) 2 mM L-glutamine, 1.5 g/L sodium bicarbonate, 4.5 g/L glucose, 10 mM HEPES and 1.0 mM sodium pyruvate, 90%; 10% fetal calf serum (FCS Gibco 10500-064).
Membranes were prepared from THP-1 cells. THP-1 cells were centrifuged at 300×g at 4° C. for 10 min. The cell pellet was resuspended in Phosphate Buffer Saline (PBS, including 10 μM Pefabloc and a protease inhibitor mix ‘complete’, Boehringer Mannheim (1 tablet/50 ml)), to a concentration of […]. The membrane preparation was performed by disrupting the cells by nitrogen […] (at 50 bar, for 1 h) in a “Nitrogen Bombe” (Parr Instrument). Cell debris was removed by centrifugation (800×g at 4° C., 1 min). The supernatant was centrifuged at 80000×g, 4° C. for 30 min to sediment the cell membranes. Usually 50 mg of protein (Bradford assay) were yielded from 1×10E9 cells. The membranes were resuspended in 25 mM HEPES, 25 mM MgCl2, 1 mM CaCl2, 10% Glycerine for storage in aliquots at −80° C. in 25 mM HEPES, 25 mM MgCl2, 1 mM CaCl2, 10% Glycerine and stored at −80° C.
Perkin Elmer NEX 332 Jod 125 MCP-1, Stock: 2200 Ci/mmol solved in 2000 μl assay buffer, stored at −20° C. THP-1 membrane were adjusted with 25 mM HEPES, pH 7.2; 5 mM MgCl2; 0.5 mM CaCl2; 0.2% BSA assay buffer to a concentration of 2.5 μg/15 μl. Amersham Biosciences PVT-WGA Beads (RPNQ0001) were adjusted with assay buffer to a concentration of 0.24 mg/30 μl. For preparation of the membrane-bead-suspension membranes and beads were incubated for 30 min at RT under rotation (60 rpm) with a ratio of 1:2. Test compounds dissolved in 100% DMSO to a concentration of 10 mM and are further diluted with 100% DMSO to 1 mM. All additional compound dilutions were obtained with assay buffer, final 1% DMSO. Compounds, membrane-bead-suspension and [125I]MCP-1 (ca. 25000 cpm/10 μl) were incubated. Bound radioactivity was determined by scintillation counter after 8 h. Determination of affinity of test compounds (dissociation constant hKi) is calculated by iterative fitting of experimental data using the “easy sys” program, which is based on law of mass action (Schittkowski K. (1994), Numerische Mathematik, Vol. 68, 129-142).
Take `COC1COCCC1NC1CCN(C(=O)c2ncnc(Oc3cccc(C(F)(F)F)c3)c2C)CC1` (stereo not shown) [Example 1]: the Ki came out at 278 nM.

For the molecule `COC1COCCC1NC1CCN(C(=O)c2ncnc(OCc3ccc(C(C)(C)C)cc3)c2C)CC1` (stereo not shown) [Example 2], the Ki was 21 nM.

Regarding `COC1COCCC1NC1CCN(C(=O)c2ncnc(OCc3ccc(Cl)c(Cl)c3)c2C)CC1` (stereo not shown) [Example 2a], the Ki was determined as 8 nM.

Regarding `COC1COCCC1NC1CCN(C(=O)c2ncnc(OCc3ccc(C(F)(F)F)c(Cl)c3)c2C)CC1` (stereo not shown) [Example 2b], the Ki stood at 8 nM.

As to `COC1COCCC1NC1CCN(C(=O)c2ncnc(OCc3cc(Cl)cc(Cl)c3)c2C)CC1` (stereo not shown) [Example 2c], the Ki was found to be 18 nM.

For the molecule `CO[C@@H]1COCC[C@@H]1NC1CCN(C(=O)c2ncnc(OCc3ccc(Cl)c(Cl)c3)c2C)CC1` [Example 2d], the Ki came to 12 nM.

For `CO[C@H]1COCC[C@H]1NC1CCN(C(=O)c2ncnc(OC[C@H]3CCC[C@@H](c4ccc(OC(F)(F)F)cc4)O3)c2C)CC1` [Example 3], the Ki was determined as 45 nM.

As to `CO[C@@H]1COCC[C@@H]1NC1CCN(C(=O)c2nccc(OCc3ccc(C(C)(C)C)cc3)c2C)CC1` [Example 3a], the Ki is 23 nM.

On to `CO[C@H]1COCC[C@H]1NC1CCN(C(=O)c2nccc(OCc3ccc(C(C)(C)C)cc3)c2C)CC1` [Example 3b], for which the Ki turned out to be 108 nM.

Consider `COc1nc(OCc2ccc(C(F)(F)F)cc2)c(C)c(C(=O)N2CCC(N[C@@H]3CCOC[C@@H]3OC)CC2)n1` [Example 3c], for which the Ki turned out to be 14 nM.

With `COc1nc(OCc2ccc(C(F)(F)F)cc2)c(C)c(C(=O)N2CCC(N[C@H]3CCOC[C@H]3OC)CC2)n1` [Example 3d], the Ki was found to be 4 nM.

On to `CO[C@H]1COCC[C@H]1NC1CCN(C(=O)c2nc(C(F)(F)F)nc(OCc3ccc(C(C)(C)C)cc3)c2C)CC1` [Example 3e], for which the Ki worked out at 9 nM.

With `CO[C@@H]1COCC[C@@H]1NC1CCN(C(=O)c2nc(C(F)(F)F)nc(OCc3ccc(C(C)(C)C)cc3)c2C)CC1` [Example 3f], the Ki stood at 7 nM.

Turning to `COc1nc(OCc2ccc(C(C)(C)C)cc2)c(C)c(C(=O)N2CCC(N[C@H]3CCOC[C@H]3OC)CC2)n1` [Example 3g], the Ki came to 2 nM.

For `COc1nc(OCc2cccc(C(F)(F)F)c2)c(C)c(C(=O)N2CCC(N[C@H]3CCOC[C@H]3OC)CC2)n1` [Example 3h], the Ki turned out to be 18 nM.

Turning to `COc1nc(OCc2ccc(C(C)(C)C)cc2)c(C)c(C(=O)N2CCC(N[C@@H]3CCOC[C@@H]3OC)CC2)n1` [Example 3i], the Ki is 4 nM.

Regarding `COc1nc(OCc2ccc(C(F)(F)F)c(Cl)c2)c(C)c(C(=O)N2CCC(N[C@H]3CCOC[C@H]3OC)CC2)n1` [Example 3j], the Ki stood at 3 nM.

Take `COc1nc(OCc2ccc(C(F)(F)F)c(Cl)c2)c(C)c(C(=O)N2CCC(N[C@@H]3CCOC[C@@H]3OC)CC2)n1` [Example 3k]: the Ki is 8 nM.

For the molecule `COc1nc(OCc2ccc(Cl)c(F)c2)c(C)c(C(=O)N2CCC(N[C@H]3CCOC[C@H]3OC)CC2)n1` [Example 3l], the Ki was 8 nM.

`COc1nc(OCc2ccc(Cl)c(Cl)c2)c(C)c(C(=O)N2CCC(N[C@H]3CCOC[C@H]3OC)CC2)n1` [Example 3m]: the Ki worked out at 10 nM.

`CO[C@@H]1COCC[C@@H]1NC1CCN(C(=O)c2nc(C(F)(F)F)nc(OCc3ccc(Cl)c(Cl)c3)c2C)CC1` [Example 3n]: the Ki was 16 nM.

On to `CO[C@@H]1COCC[C@@H]1NC1CCN(C(=O)c2nc(C(F)(F)F)nc(OCc3cc(Cl)cc(Cl)c3)c2C)CC1` [Example 3o], for which the Ki stood at 18 nM.

Source of the values: patent US8841313B2, “CCR2 antagonists and uses thereof” (Boehringer Ingelheim International GmbH, priority 2010, dated 2014).
